According to patent US9434714B2, “Pyrimidine imidazole amines as modulators of kinase activity” (Merck Patent GmbH, priority 2014, dated 2016):

Legend:
P70S6K (T412E mutant) = target: T1, P70S6K (T412E mutant) (Homo sapiens, UniProt P23443, T412E); experiment: P70S6K enzyme assay; type: biochemical; details: 24 μM ATP, 90 min at 25° C., mobility shift (Caliper)
T1 construct: purchased Millipore
Experimental: P70S6K inhibitor compounds were diluted and plated in 96 well plates. A reaction mixture including the following components was then added to the compound plate to initiate the enzyme reaction; P70S6K (3 nM, T412E mutant, Millipore) was mixed with 24 μM ATP in an assay buffer containing 100 mM Hepes (pH 7.5), 5 mM MgCl2, 1 mM DTT, 0.015% Brij and 1 μM of the substrate peptide FITC-AHA-AKRRRLSSLRA-OH (derived from the S6 ribosomal protein sequence, FITC=fluorescein isothiocyanate, AHA=6-aminohexanoic acid). The reaction was incubated for 90 min at 25° C., before the addition of 10 mM EDTA to stop the reaction. The proportion of substrate and product (phosphorylated) peptide was analysed on a Caliper Life Sciences Lab Chip 3000, using a pressure of −1.4 psi, and upstream and downstream voltages of −3000 and −700 respectively. Product peaks were resolved before substrate peaks on the resulting chromatograms.

His-AKT (Full Length) = target: T2, His-AKT (Full Length) (Homo sapiens, UniProt P31749); experiment: AKT enzyme assay; type: biochemical; details: 160 uM ATP, 90 min at 25 C, off-chip mobility shift (Caliper)
T2 construct: His-AKT (Full Length); His; purchased Invitrogen P2999
T2 sequence (P31749 whole entry): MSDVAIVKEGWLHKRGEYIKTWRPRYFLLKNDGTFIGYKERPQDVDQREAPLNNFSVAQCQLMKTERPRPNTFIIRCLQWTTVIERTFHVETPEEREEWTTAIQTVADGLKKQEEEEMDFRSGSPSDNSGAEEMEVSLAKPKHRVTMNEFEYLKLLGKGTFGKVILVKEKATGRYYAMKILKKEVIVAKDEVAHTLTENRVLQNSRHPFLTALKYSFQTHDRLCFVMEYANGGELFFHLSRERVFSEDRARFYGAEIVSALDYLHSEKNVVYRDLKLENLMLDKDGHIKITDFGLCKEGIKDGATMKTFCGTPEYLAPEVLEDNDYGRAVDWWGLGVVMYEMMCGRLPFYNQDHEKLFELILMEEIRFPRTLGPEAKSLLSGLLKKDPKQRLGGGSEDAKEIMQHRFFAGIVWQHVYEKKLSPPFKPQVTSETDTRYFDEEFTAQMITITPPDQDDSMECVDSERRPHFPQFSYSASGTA
Experimental: A TTP Mosquito liquid handling instrument was used to place 125 nl of the appropriate concentration of inhibitor in 100% DMSO (for a dose response curve calculation) into each well of a 384-well plate. To this reaction components were added to a final volume of 12.5 μl: • 0.1 ng/μ1 His-AKT (Full Length), (Invitrogen, Part # P2999, Lot #641228C). • 160 uM ATP (Fluka, 02055) • 1 mM DTT (Sigma, D0632) • 1 mM MgCl2 (Sigma, M1028) • 1 μM substrate peptide (sequence FITC-AHA-GRPRTSSFAEG-NH2), synthesized by Tufts Peptide Synthesis service. • 100 mM HEPES pH 7.5 (Calbiochem, 391338) • 0.015% Brij-35 (Sigma, B4184)
The reaction was incubated for 90 min at 25 C, and then stopped by the addition of 70 μl of Stop buffer (100 mM HEPES pH 7.5, 0.015% Brij-35, 10 mM EDTA (Sigma, E7889)).
The plate was read on a Caliper LC 3000 in an Off-Chip mobility shift assay format, using the following parameters for a 12-sipper chip: screening pressure—2.3 psi, upstream voltage—500, and downstream voltage—3000. These conditions cause unphosphorylated substrate and phosphorylated product peptide to resolve as separate peaks allowing direct measurement of percentage of conversion of substrate to product. The percent conversion was plotted against concentration of inhibitor to produce a sigmoidal dose response curve, from which an IC50 was calculated.

T1 sequence (P23443 whole entry T412E): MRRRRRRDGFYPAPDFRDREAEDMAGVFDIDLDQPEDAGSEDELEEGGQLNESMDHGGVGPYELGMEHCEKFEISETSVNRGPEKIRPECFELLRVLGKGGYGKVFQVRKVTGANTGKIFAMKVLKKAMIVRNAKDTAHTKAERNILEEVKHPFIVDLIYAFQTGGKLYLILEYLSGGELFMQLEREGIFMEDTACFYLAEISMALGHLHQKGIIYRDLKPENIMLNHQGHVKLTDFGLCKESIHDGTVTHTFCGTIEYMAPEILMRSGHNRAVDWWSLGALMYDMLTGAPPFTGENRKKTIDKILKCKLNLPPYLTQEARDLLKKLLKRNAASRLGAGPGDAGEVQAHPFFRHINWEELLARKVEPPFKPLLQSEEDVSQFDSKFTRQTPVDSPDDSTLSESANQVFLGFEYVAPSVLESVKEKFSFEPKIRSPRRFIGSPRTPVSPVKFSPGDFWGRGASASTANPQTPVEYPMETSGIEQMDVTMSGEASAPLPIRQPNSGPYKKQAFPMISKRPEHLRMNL

| Compound | IC50 (P70S6K (T412E mutant)) [nM] | IC50 (His-AKT (Full Length)) [nM] |
| --- | --- | --- |
| CCOc1c(N)ncnc1N1CCC(c2nc(-c3ccnc(C(C)C)c3)cn2CCN2CCC2)CC1 [Compound 10, 6-{4-[1-(2-Azetidin-1-yl-ethyl)-4-(2-isopropyl-pyridin-4-yl)-1H-imidazol-2-yl]-piperidin-1-yl}-5-ethoxy-pyrimidin-4-ylamine] | 3 to 15 | 3 to 15 |
| Cc1cc(-c2cn(CCN3CCC3)c(C3CCN(c4ncnc(N)c4Cl)CC3)n2)ccc1F [Compound 2, 6-{4-[1-(2-Azetidin-1-yl-ethyl)-4-(4-fluoro-3-methyl-phenyl)-1H-imidazol-2-yl]-piperidin-1-yl}-5-chloro-pyrimidin-4-ylamine] | < 3 | < 3 |
| Cc1cc(-c2cn(CCN3CCC3)c(C3CCN(c4ncnc(N)c4-c4ccncc4)CC3)n2)ccc1F [Compound 8, 6-{4-[1-(2-Azetidin-1-yl-ethyl)-4-(4-fluoro-3-methyl-phenyl)-1H-imidazol-2-yl]-piperidin-1-yl}-5-pyridin-4-yl-pyrimidin-4-ylamine] | 3 to 15 | 3 to 15 |
| CC(C)c1cc(-c2cn(CCN3CCC3)c(C3CCN(c4ncnc(N)c4-c4cccnc4)CC3)n2)ccn1 [Compound 19, 6-{4-[1-(2-Azetidin-1-yl-ethyl)-4-(2-isopropyl-pyridin-4-yl)-1H-imidazol-2-yl]-piperidin-1-yl}-5-Pyridin-3-yl-pyrimidin-4-ylamine] | 3 to 15 | > 15 |
| Cc1cc(-c2cn(CCN(C)C)c(C3CCN(c4ncnc(N)c4Br)CC3)n2)ccc1F [Compound 21] | < 3 | < 3 |
| Cc1cc(-c2cn(CCN3CCC3)c(C3CCN(c4ncnc(N)c4C4CC4)CC3)n2)ccc1F [Compound 16, 6-{4-[1-(2-Azetidin-1-yl-ethyl)-4-(4-fluoro-3-methyl-phenyl)-1H-imidazol-2-yl]-piperidin-1-yl}-5-cyclopropyl-pyrimidin-4-ylamine] | < 3 | < 3 |
| CCOc1c(N)ncnc1N1CCC(c2nc(-c3ccc(F)c(Cl)c3)cn2CCN(C)C)CC1 [Compound 20] | < 3 | 3 to 15 |
| CC(C)c1cc(-c2cn(CCN3CCC3)c(C3CCN(c4ncnc(N)c4C(C)C)CC3)n2)ccn1 [Compound 3, 6-{4-[1-(2-Azetidin-1-yl-ethyl)-4-(2-isopropyl-pyridin-4-yl)-1H-imidazol-2-yl]-piperidin-1-yl}-5-isopropyl-pyrimidin-4-ylamine] | 3 to 15 | 3 to 15 |
| Cc1cc(-c2cn(CCN3CCC3)c(C3CCN(c4ncnc(N)c4-c4ccn[nH]4)CC3)n2)ccc1F [Compound 7, 6-{4-[1-(2-Azetidin-1-yl-ethyl)-4-(4-fluoro-3-methyl-phenyl)-1H-imidazol-2-yl]-piperidin-1-yl}-5-(2H-pyrazol-3-yl)-pyrimidin-4-ylamine] | 3 to 15 | 3 to 15 |
| CC(C)c1cc(-c2cn(CCN3CCC3)c(C3CCN(c4ncnc(N)c4C=O)CC3)n2)ccn1 [Compound 15, 4-Amino-6-{4-[1-(2-azetidin-1-yl-ethyl)-4-(2-isopropyl-pyridin-4-yl)-1H-imidazol-2-yl]-piperidin-1-yl}-pyrimidine-5-carbaldehyde] | < 3 | 3 to 15 |
| Cc1cc(-c2cn(CCN3CCC3)c(C3CCN(c4ncnc(N)c4-c4cccnc4)CC3)n2)ccc1F [Compound 9, 6-{4-[1-(2-Azetidin-1-yl-ethyl)-4-(4-fluoro-3-methyl-phenyl)-1H-imidazol-2-yl]-piperidin-1-yl}-5-pyridin-3-yl-pyrimidin-4-ylamine] | 3 to 15 | 3 to 15 |
| CCc1c(N)ncnc1N1CCC(c2nc(-c3ccc(F)c(C)c3)cn2CCN2CCC2)CC1 [Compound 1, 6-{4-[1-(2-Azetidin-1-yl-ethyl)-4-(4-fluoro-3-methyl-phenyl)-1H-imidazol-2-yl]-piperidin-1-yl}-5-ethyl-pyrimidin-4-ylamine] | < 3 | 3 to 15 |

Other lines, results leading:

| IC50 (P70S6K (T412E mutant)) [nM] | IC50 (His-AKT (Full Length)) [nM] | Compound |
| --- | --- | --- |
| < 3 | 3 to 15 | CN(C)CCn1cc(-c2ccnc(C(F)(F)F)c2)nc1C1CCN(c2ncnc(N)c2Cl)CC1 [Compound 24] |
| 3 to 15 | 3 to 15 | CC(C)Oc1c(N)ncnc1N1CCC(c2nc(-c3ccnc(C(F)(F)F)c3)cn2CCN(C)C)CC1 [Compound 28] |
| < 3 | 3 to 15 | CN(C)CCn1cc(-c2ccc(F)c(C(F)(F)F)c2)nc1C1CCN(c2ncnc(N)c2Cl)CC1 [Compound 23] |
| 3 to 15 | 3 to 15 | CCOc1c(N)ncnc1N1CCC(c2nc(-c3ccnc(C(F)(F)F)c3)cn2CCN(C)C)CC1 [Compound 26] |
| < 3 | 3 to 15 | Cc1cc(-c2cn(CCNCCCCl)c(C3CCN(c4ncnc(N)c4C(C)C)CC3)n2)ccc1F [Compound 32, 6-{4-[1-[2-(3-Chloro-propylamino)-ethyl]-4-(4-fluoro-3-methyl-phenyl)-1H-imidazol-2-yl]-piperidin-1-yl}-5-isopropyl-pyrimidin-4-ylamine] |
| 3 to 15 | 3 to 15 | CCNCCn1cc(-c2ccc(F)c(C(F)(F)F)c2)nc1C1CCN(c2ncnc(N)c2C(C)C)CC1 [Compound 31, 6-{4-[1-(2-Ethylamino-ethyl)-4-(4-fluoro-3-trifluoromethyl-phenyl)-1H-imidazol-2-yl]-piperidin-1-yl}-5-isopropyl-pyrimidin-4-ylamine] |
| > 15 | > 15 | CN(C)CCn1cc(-c2ccnc(C(F)(F)F)c2)nc1C1CCN(c2ncnc(N)c2C(N)=O)CC1 [Compound 30] |
